System: 931267-113-T-J1-PDC KRAS spheroid with HUVEC/MSC, viability
Experiment: Anticancer human tumor 931267-113-T-J1-PDC patient-derived colon adenocarcinoma cell line growth inhibition [KRAS2]
Details: for IC50: curve of first compound; for viability, T/C: stronger effect = lower value
Text: Multicellular complex tumor spheroid response to RAS pathway inhibitors in combination with a targeted agents in patient-derived cell lines with oncogenic KRAS variants from multiple cancer types
A high-throughput screen of multi-cell type tumor spheroids was designed to identify active combinations of targeted small molecules and KRAS pathway inhibitors. Complex spheroids include a stromal component modeled by human endothelial cells (HUVEC) and fibroblasts modeled by human mesenchymal stem cells (MSCs). The concentration ranges selected for each drug and investigational agent were based upon clinically achievable concentrations if the clinical Cmax of the agent was known.
Compounds. The drugs and investigational agents: BI-3406 (NSC825286), BAY-293 (NSC824723), batoprotafib (TNO155; NSC825523), sotorasib (AMG 510; NSC818433), MRTX1257 (NSC819558), elimusertib (BAY 1895344; NSC800525), molibresib (GSK525762; NSC774829), temuterkib (LY3214996; NSC803410), venetoclax (NSC766270), alisertib (NSC759677), olaparib (NSC753686), talazoparib (NSC767125), erdafitinib (NSC781556), ipatasertib (NSC767898), cabozantinib (NSC761068), nintedanib (NSC756659), abemaciclib (NSC768073), docetaxel (NSC628503), trametinib (NSC758246), and sapanisertib (NSC764658) were obtained from the National Cancer Institute (NCI) Developmental Therapeutics Program Chemical Repository. The FDA-approved anticancer drug set is available from the Developmental Therapeutics Program. […] The stock solutions were prepared in dimethyl sulfoxide (DMSO, Sigma-Aldrich, St. Louis, MO, cat. D2650) at 800-fold the tested concentration and stored at -70 degrees C prior to their use. All drugs and investigational agents were tested over a range starting from a high concentration at or near the clinical Cmax and decreasing in half-log increments. If the clinical Cmax for an agent had not been determined, the highest concentration tested was 10 microM.
Cell Culture. All cells were maintained in an incubator at 37 degrees C and 5% CO2 with 95% humidity. The PDC lines were cultured according to standard operating procedures established by the NCI PDMR (https://pdmr.cancer.gov/sops/default.htm). Briefly, all PDCs were thawed and cultured in Matrigel-coated flasks prepared with a working solution of 1X Ham's F-12 nutrient mix, without supplementation (Invitrogen, Waltham, MA, cat. 11765054), 100 U/mL penicillin-streptomycin (Invitrogen, cat. 15140122), and 2.5% Matrigel (Corning Inc., Corning, NY, cat. 354248) for the first three passages. All PDCs were cultured in complete DMEM/F-12 media containing advanced DMEM/F-12 (Invitrogen, cat. 12634028), 4.9% defined fetal bovine serum, heat inactivated (HyClone Laboratories Inc., Logan, UT, cat. SH30070.03HI), 389 ng/mL hydrocortisone (Sigma-Aldrich, cat. H4001), 9.7 ng/mL human EGF recombinant protein (Invitrogen, cat. PHG0313), 23.4 microg/mL adenine (Sigma-Aldrich, cat. A2786), 97.3 U/mL penicillin-streptomycin (Invitrogen, cat. 15140122), 1.9 mM L-glutamine (Invitrogen, cat. 25030081), and 9.7 microM Y-27632 dihydrochloride (Tocris Bioscience, Bristol, United Kingdom, cat. 1254). The PDCs were cultured in complete DMEM/F12 media without 9.7 microM Y-27632 dihydrochloride for at least two passages prior to the screen. The established cell line HOP-62 was cultured in RPMI 1640 medium, HEPES (Invitrogen, cat. 22400105) with 10% defined fetal bovine serum (HyClone Laboratories Inc., cat. SH30070.03) and 2 mM L-glutamine (Invitrogen, cat. 25030081). The pooled donor HUVEC were cultured in endothelial cell growth medium 2 (PromoCell, Heidelberg, Germany, cat. C-22011) and the hMSC were cultured in mesenchymal stem cell growth medium 2 (PromoCell, cat. C-28009). For all experiments, HUVEC and hMSC were used at passages </=5, while the malignant cell lines were used at passages </=15. […]

[1] = second compound 0.1 µM, first compound 0.0316 µM
[2] = second compound 0.316 µM, first compound 0.0316 µM
[3] = second compound 1 µM, first compound 0.0316 µM
[4] = second compound 3.16 µM, first compound 0.0316 µM
[5] = second compound 10 µM, first compound 0.0316 µM
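Also: compound exposure lasted 7 days before the readout.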
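For viability, T/C in this document: 100% = DMSO vehicle control viability.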

Structure (SMILES): CC(=O)Nc1cccc(-n2c(=O)n(C3CC3)c(=O)c3c(Nc4ccc(I)cc4F)n(C)c(=O)c(C)c32)c1 + C=CC(=O)N1CCN(c2nc(=O)n(-c3c(C)ccnc3C(C)C)c3nc(-c4c(O)cccc4F)c(F)cc23)C(C)C1
- IC50 (second compound 0.1 µM): 10.5 nM
- IC50 (second compound 0.316 µM): 9.41 nM
- IC50 (second compound 1 µM): 11.3 nM
- IC50 (second compound 3.16 µM): 31.6 nM
- IC50 (second compound 10 µM): 2.79 nM
- viability, T/C (second compound 0.1 µM, first compound 0.0001 µM): 88.7%
- viability, T/C (second compound 0.1 µM, first compound 0.000316 µM): 81.9%
- viability, T/C (second compound 0.1 µM, first compound 0.001 µM): 66.7%
- viability, T/C (second compound 0.1 µM, first compound 0.00316 µM): 60.1%
- viability, T/C (second compound 0.1 µM, first compound 0.01 µM): 62.9%
- viability, T/C [1]: 9.67%
- viability, T/C (second compound 0.316 µM, first compound 0.0001 µM): 97.1%
- viability, T/C (second compound 0.316 µM, first compound 0.000316 µM): 94.5%
- viability, T/C (second compound 0.316 µM, first compound 0.001 µM): 74.1%
- viability, T/C (second compound 0.316 µM, first compound 0.00316 µM): 71.3%
- viability, T/C (second compound 0.316 µM, first compound 0.01 µM): 53.8%
- viability, T/C [2]: 10.6%
- viability, T/C (second compound 1 µM, first compound 0.0001 µM): 88.5%
- viability, T/C (second compound 1 µM, first compound 0.000316 µM): 97.4%
- viability, T/C (second compound 1 µM, first compound 0.001 µM): 93.9%
- viability, T/C (second compound 1 µM, first compound 0.00316 µM): 59.5%
- viability, T/C (second compound 1 µM, first compound 0.01 µM): 62.6%
- viability, T/C [3]: 12.9%
- viability, T/C (second compound 3.16 µM, first compound 0.0001 µM): 123%
- viability, T/C (second compound 3.16 µM, first compound 0.000316 µM): 99%
- viability, T/C (second compound 3.16 µM, first compound 0.001 µM): 62.8%
- viability, T/C (second compound 3.16 µM, first compound 0.00316 µM): 54%
- viability, T/C (second compound 3.16 µM, first compound 0.01 µM): 64.7%
- viability, T/C [4]: 19.6%
- viability, T/C (second compound 10 µM, first compound 0.0001 µM): 85.8%
- viability, T/C (second compound 10 µM, first compound 0.000316 µM): 82.4%
- viability, T/C (second compound 10 µM, first compound 0.001 µM): 49.1%
- viability, T/C (second compound 10 µM, first compound 0.00316 µM): 50.9%
- viability, T/C (second compound 10 µM, first compound 0.01 µM): 44.7%
- viability, T/C [5]: 28.3%

Structure (SMILES): COc1cc(Nc2ncc3c(n2)-c2ccc(Cl)cc2C(c2c(F)cccc2OC)=NC3)ccc1C(=O)O + C=CC(=O)N1CCN(c2nc(=O)n(-c3c(C)ccnc3C(C)C)c3nc(-c4c(O)cccc4F)c(F)cc23)C(C)C1
- IC50 (second compound 0.1 µM): > 10000 nM
- IC50 (second compound 0.316 µM): > 10000 nM
- IC50 (second compound 1 µM): > 10000 nM
- IC50 (second compound 3.16 µM): > 10000 nM
- IC50 (second compound 10 µM): > 10000 nM
- viability, T/C [1]: 102%
- viability, T/C (second compound 0.1 µM, first compound 0.1 µM): 114%
- viability, T/C (second compound 0.1 µM, first compound 0.316 µM): 122%
- viability, T/C (second compound 0.1 µM, first compound 1 µM): 99.9%
- viability, T/C (second compound 0.1 µM, first compound 3.16 µM): 96.8%
- viability, T/C (second compound 0.1 µM, first compound 10 µM): 103%
- viability, T/C [2]: 101%
- viability, T/C (second compound 0.316 µM, first compound 0.1 µM): 93.8%
- viability, T/C (second compound 0.316 µM, first compound 0.316 µM): 98%
- viability, T/C (second compound 0.316 µM, first compound 1 µM): 108%
- viability, T/C (second compound 0.316 µM, first compound 3.16 µM): 95.2%
- viability, T/C (second compound 0.316 µM, first compound 10 µM): 72.7%
- viability, T/C [3]: 129%
- viability, T/C (second compound 1 µM, first compound 0.1 µM): 109%
- viability, T/C (second compound 1 µM, first compound 0.316 µM): 107%
- viability, T/C (second compound 1 µM, first compound 1 µM): 127%
- viability, T/C (second compound 1 µM, first compound 3.16 µM): 106%
- viability, T/C (second compound 1 µM, first compound 10 µM): 83.3%
- viability, T/C [4]: 126%
- viability, T/C (second compound 3.16 µM, first compound 0.1 µM): 109%
- viability, T/C (second compound 3.16 µM, first compound 0.316 µM): 103%
- viability, T/C (second compound 3.16 µM, first compound 1 µM): 110%
- viability, T/C (second compound 3.16 µM, first compound 3.16 µM): 107%
- viability, T/C (second compound 3.16 µM, first compound 10 µM): 88.4%
- viability, T/C [5]: 136%
- viability, T/C (second compound 10 µM, first compound 0.1 µM): 111%
- viability, T/C (second compound 10 µM, first compound 0.316 µM): 118%
- viability, T/C (second compound 10 µM, first compound 1 µM): 127%
- viability, T/C (second compound 10 µM, first compound 3.16 µM): 119%
- viability, T/C (second compound 10 µM, first compound 10 µM): 90.3%

Reference: PubChem BioAssay AID1963863 (Molecular Pharmacology Branch, DTP, NCI, 2024)
